In patent US9695155B2, “Herbicidal substituted pyrimidinyloxy benzene compounds” (E. I. DU PONT DE NEMOURS AND COMPANY, priority 2013, dated 2017):

Key:
large (Lg) crabgrass = test: Test A preemergence; format: in vivo, Digitaria sanguinalis; conditions: for Crabgrass, Large plant response rating: 500 g ai/ha
Summary of the method: (§1)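 Compounds in non-phytotoxic solvent with surfactant applied as soil spray preemergence, or postemergence to plants 2-10 cm at one- to two-leaf stage, in loam/sand. After approximately 10 days in greenhouse, injury rated visually versus untreated controls, 0 (no effect) to 100 (complete control).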

pigweed [1] = test: Test A preemergence; format: in vivo, Amaranthus retroflexus; conditions: for Pigweed plant response rating: 500 g ai/ha
Summary of the method: as §1

blackgrass [2] = test: Test C preemergence; format: in vivo, Alopecurus myosuroides; conditions: for Blackgrass plant response rating: preemergence; for Plant response rating, Blackgrass: Preemergence, scale 0 to 100, 0 no effect, 100 complete control
Summary of the method: (§2)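 Visual ratings on a 0–100 scale (100 = complete control) were made versus untreated controls after 13–15 greenhouse days. Chemicals in a surfactant-containing non-phytotoxic solvent were applied either preemergence to seeds in loam–sand soil or postemergence to 1- to 4-leaf plants 2–18 cm tall.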

Italian ryegrass = test: Test C preemergence; format: in vivo, Lolium multiflorum; conditions: for Ryegrass, Italian plant response rating: preemergence; for Plant response rating, Ryegrass, Italian: Preemergence, scale 0 to 100, 0 no effect, 100 complete control
Summary of the method: as §2

morningglory = test: Test C preemergence; format: in vivo, Ipomoea coccinea; conditions: for Morningglory plant response rating: preemergence; for Plant response rating, Morningglory: Preemergence, scale 0 to 100, 0 no effect, 100 complete control
Summary of the method: as §2

yellow nutsedge [3] = test: Test C preemergence; format: in vivo, Cyperus esculentus; conditions: for Nutsedge, Yellow plant response rating: preemergence; for Plant response rating, Nutsedge, Yellow: Preemergence, scale 0 to 100, 0 no effect, 100 complete control
Summary of the method: as §2

pigweed [4] = test: Test C preemergence; format: in vivo, Amaranthus retroflexus; conditions: for Pigweed plant response rating: preemergence; for Plant response rating, Pigweed: Preemergence, scale 0 to 100, 0 no effect, 100 complete control
Summary of the method: as §2

ragweed = test: Test C preemergence; format: in vivo, Ambrosia elatior; conditions: for Ragweed plant response rating: preemergence; for Plant response rating, Ragweed: Preemergence, scale 0 to 100, 0 no effect, 100 complete control
Summary of the method: as §2

soybean = test: Test C preemergence; format: in vivo, Glycine max; conditions: for Soybean plant response rating: preemergence; for Plant response rating, Soybean: Preemergence, scale 0 to 100, 0 no effect, 100 complete control
Summary of the method: as §2

blackgrass [5] = test: Test C postemergence; format: in vivo, Alopecurus myosuroides; conditions: for Blackgrass plant response rating / Plant response rating, Blackgrass: scale 0 to 100 (0 no effect, 100 complete control)
Summary of the method: as §2

wheat, winter = test: Test C postemergence; format: in vivo, Triticum aestivum
Summary of the method: as §2

corn = test: Test C postemergence; format: in vivo, Zea mays; conditions: for Corn plant response rating / Plant response rating, Corn: scale 0 to 100 (0 no effect, 100 complete control)
Summary of the method: as §2

giant foxtail = test: Test C postemergence; format: in vivo, Setaria faberii; conditions: for Foxtail, Giant plant response rating / Plant response rating, Foxtail, Giant: scale 0 to 100 (0 no effect, 100 complete control)
Summary of the method: as §2

yellow nutsedge [6] = test: Test C postemergence; format: in vivo, Cyperus esculentus
Summary of the method: as §2

barnyardgrass = test: Test C postemergence; format: in vivo, Echinochloa crus-galli; conditions: for Barnyardgrass plant response rating / Plant response rating, Barnyardgrass: scale 0 to 100 (0 no effect, 100 complete control)
Summary of the method: as §2

wild oat = test: Test C postemergence; format: in vivo, Avena fatua
Summary of the method: as §2

chickweed = test: Test C postemergence; format: in vivo, Stellaria media; conditions: for Chickweed plant response rating / Plant response rating, Chickweed: scale 0 to 100 (0 no effect, 100 complete control)
Summary of the method: as §2

[7] = 125 g ai/ha, 0 to 100 scale where 0 is no effect and 100 is complete control
[8] = 0 to 100 scale, 0 no effect, 100 complete control, approx. 10 days
[9] = 16 g ai/ha, scale 0 to 100 (0 no effect, 100 complete control)
[10] = 62 g ai/ha, scale 0 (no effect) to 100 (complete control)
[11] = 125 g ai/ha, scale 0 (no effect) to 100 (complete control)
[12] = 16 g ai/ha, postemergence, visual rating, 13 to 15 days
[13] = 125 g ai/ha, postemergence, visual rating
[14] = Postemergence, 31 g ai/ha, 13 to 15 days
[15] = 125 g ai/ha, postemergence, visual rating, scale 0 to 100 (0 no effect, 100 complete control)
[16] = Postemergence, 62 g ai/ha, scale 0 to 100 (0 no effect, 100 complete control)
[17] = 0 to 100 scale where 0 is no effect and 100 is complete control
[18] = 250 g ai/ha, scale 0 (no effect) to 100 (complete control)
[19] = 31 g ai/ha, postemergence, visual rating, 13 to 15 days
[20] = Postemergence, 62 g ai/ha, 13 to 15 days
[21] = 31 g ai/ha, postemergence, visual rating, scale 0 to 100 (0 no effect, 100 complete control), 13 to 15 days
[22] = Postemergence, 62 g ai/ha, scale 0 to 100 (0 no effect, 100 complete control), 13 to 15 days

Structure (SMILES): N#Cc1cnn(-c2c(C#N)cccc2Oc2ncc(F)cn2)c1 [Compound 111]
- Plant response rating, Crabgrass, Large (large (Lg) crabgrass; [7]): 100
- Crabgrass, Large plant response rating (large (Lg) crabgrass; [8]): 100
- Plant response rating, Pigweed (pigweed [1]; [7]): 100
- Pigweed plant response rating (pigweed [1]; [8]): 100
- Blackgrass plant response rating (blackgrass [2]; [9]): 20
- Blackgrass plant response rating (blackgrass [2]; [10]): 40
- Blackgrass plant response rating (blackgrass [2]; [11]): 90
- Plant response rating, Blackgrass (blackgrass [2]; 31 g ai/ha): 10
- Ryegrass, Italian plant response rating (Italian ryegrass; [9]): 0
- Ryegrass, Italian plant response rating (Italian ryegrass; [10]): 40
- Ryegrass, Italian plant response rating (Italian ryegrass; [11]): 60
- Plant response rating, Ryegrass, Italian (Italian ryegrass; 31 g ai/ha): 0
- Morningglory plant response rating (morningglory; [9]): 20
- Morningglory plant response rating (morningglory; [10]): 85
- Morningglory plant response rating (morningglory; [11]): 100
- Plant response rating, Morningglory (morningglory; 31 g ai/ha): 45
- Nutsedge, Yellow plant response rating (yellow nutsedge [3]; [9]): 0
- Nutsedge, Yellow plant response rating (yellow nutsedge [3]; [10]): 15
- Nutsedge, Yellow plant response rating (yellow nutsedge [3]; [11]): 50
- Plant response rating, Nutsedge, Yellow (yellow nutsedge [3]; 31 g ai/ha): 0
- Pigweed plant response rating (pigweed [4]; [9]): 75
- Pigweed plant response rating (pigweed [4]; [10]): 100
- Pigweed plant response rating (pigweed [4]; [11]): 100
- Plant response rating, Pigweed (pigweed [4]; 31 g ai/ha): 95
- Ragweed plant response rating (ragweed; [9]): 10
- Ragweed plant response rating (ragweed; [10]): 100
- Ragweed plant response rating (ragweed; [11]): 100
- Plant response rating, Ragweed (ragweed; 31 g ai/ha): 50
- Soybean plant response rating (soybean; [9]): 30
- Soybean plant response rating (soybean; [10]): 80
- Soybean plant response rating (soybean; [11]): 95
- Plant response rating, Soybean (soybean; 31 g ai/ha): 60
- Blackgrass plant response rating (blackgrass [5]; [12]): 0
- Plant response rating, Blackgrass (blackgrass [5]; [13]): 10
- Plant response rating, Blackgrass (blackgrass [5]; [14]): 0
- Plant response rating, Blackgrass (blackgrass [5]; Postemergence, 62 g ai/ha): 5
- Plant response rating, Wheat (wheat, winter; [15]): 5
- Plant response rating, Wheat (wheat, winter; [16]): 0
- Corn plant response rating (corn; [12]): 5
- Plant response rating, Corn (corn; [13]): 15
- Plant response rating, Corn (corn; Postemergence, 62 g ai/ha): 10
- Foxtail, Giant plant response rating (giant foxtail; [12]): 20
- Plant response rating, Foxtail, Giant (giant foxtail; [13]): 65
- Plant response rating, Foxtail, Giant (giant foxtail; Postemergence, 62 g ai/ha): 35
- Plant response rating, Nutsedge, Yellow (yellow nutsedge [6]; [15]): 5
- Plant response rating, Nutsedge, Yellow (yellow nutsedge [6]; [16]): 5
- Barnyardgrass plant response rating (barnyardgrass; [12]): 5
- Plant response rating, Barnyardgrass (barnyardgrass; [13]): 35
- Plant response rating, Barnyardgrass (barnyardgrass; [14]): 5
- Plant response rating, Barnyardgrass (barnyardgrass; Postemergence, 62 g ai/ha): 5
- Plant response rating, Oat, Wild (wild oat; [15]): 5
- Plant response rating, Oat, Wild (wild oat; [16]): 5
- Chickweed plant response rating (chickweed; [12]): 50
- Plant response rating, Chickweed (chickweed; [13]): 95
- Plant response rating, Chickweed (chickweed; Postemergence, 62 g ai/ha): 75

Structure (SMILES): N#Cc1cccc(Oc2ncc(Cl)cn2)c1-n1cc(I)cn1 [Compound 204]
- Crabgrass, Large plant response rating (0 to 100 scale) (large (Lg) crabgrass; 125 g ai/ha): 100
- Crabgrass, Large plant response rating (large (Lg) crabgrass; [17]): 100
- Pigweed plant response rating (0 to 100 scale) (pigweed [1]; 125 g ai/ha): 100
- Pigweed plant response rating (pigweed [1]; [17]): 100
- Blackgrass plant response rating (blackgrass [2]; [11]): 90
- Blackgrass plant response rating (blackgrass [2]; [18]): 95
- Plant response rating, Blackgrass (blackgrass [2]; 62 g ai/ha): 80
- Ryegrass, Italian plant response rating (Italian ryegrass; [11]): 75
- Ryegrass, Italian plant response rating (Italian ryegrass; [18]): 95
- Plant response rating, Ryegrass, Italian (Italian ryegrass; 62 g ai/ha): 35
- Morningglory plant response rating (morningglory; [11]): 98
- Morningglory plant response rating (morningglory; [18]): 98
- Plant response rating, Morningglory (morningglory; 62 g ai/ha): 98
- Nutsedge, Yellow plant response rating (yellow nutsedge [3]; [11]): 60
- Nutsedge, Yellow plant response rating (yellow nutsedge [3]; [18]): 60
- Plant response rating, Nutsedge, Yellow (yellow nutsedge [3]; 62 g ai/ha): 0
- Pigweed plant response rating (pigweed [4]; [11]): 98
- Pigweed plant response rating (pigweed [4]; [18]): 98
- Plant response rating, Pigweed (pigweed [4]; 62 g ai/ha): 100
- Ragweed plant response rating (ragweed; [11]): 5
- Ragweed plant response rating (ragweed; [18]): 85
- Plant response rating, Ragweed (ragweed; 62 g ai/ha): 5
- Soybean plant response rating (soybean; [11]): 65
- Soybean plant response rating (soybean; [18]): 80
- Plant response rating, Soybean (soybean; 62 g ai/ha): 35
- Blackgrass plant response rating (blackgrass [5]; [19]): 5
- Plant response rating, Blackgrass (blackgrass [5]; [13]): 10
- Plant response rating (0 to 100), Blackgrass (blackgrass [5]; 250 g ai/ha, postemergence): 25
- Plant response rating, Blackgrass (blackgrass [5]; [20]): 5
- Wheat plant response rating (wheat, winter; [21]): 5
- Plant response rating, Wheat (wheat, winter; [15]): 10
- Plant response rating (0 to 100), Wheat (wheat, winter; 250 g ai/ha, postemergence): 10
- Plant response rating, Wheat (wheat, winter; [22]): 5
- Corn plant response rating (corn; [19]): 10
- Plant response rating, Corn (corn; [13]): 20
- Plant response rating (0 to 100), Corn (corn; 250 g ai/ha, postemergence): 20
- Plant response rating, Corn (corn; [20]): 20
- Foxtail, Giant plant response rating (giant foxtail; [19]): 5
- Plant response rating, Foxtail, Giant (giant foxtail; [13]): 10
- Plant response rating (0 to 100), Foxtail, Giant (giant foxtail; 250 g ai/ha, postemergence): 90
- Plant response rating, Foxtail, Giant (giant foxtail; [20]): 5
- Nutsedge, Yellow plant response rating (yellow nutsedge [6]; [21]): 0
- Plant response rating, Nutsedge, Yellow (yellow nutsedge [6]; [15]): 0
- Plant response rating (0 to 100), Nutsedge, Yellow (yellow nutsedge [6]; 250 g ai/ha, postemergence): 5
- Plant response rating, Nutsedge, Yellow (yellow nutsedge [6]; [22]): 10
- Barnyardgrass plant response rating (barnyardgrass; [19]): 5
- Plant response rating, Barnyardgrass (barnyardgrass; [13]): 5
- Plant response rating (0 to 100), Barnyardgrass (barnyardgrass; 250 g ai/ha, postemergence): 35
- Plant response rating, Barnyardgrass (barnyardgrass; Postemergence, 62 g ai/ha): 10
- Oat, Wild plant response rating (wild oat; [21]): 20
- Plant response rating, Oat, Wild (wild oat; [15]): 15
- Plant response rating (0 to 100), Oat, Wild (wild oat; 250 g ai/ha, postemergence): 15
- Plant response rating, Oat, Wild (wild oat; [22]): 15
- Chickweed plant response rating (chickweed; [19]): 75
- Plant response rating, Chickweed (chickweed; [13]): 98
- Plant response rating (0 to 100), Chickweed (chickweed; 250 g ai/ha, postemergence): 100
- Plant response rating, Chickweed (chickweed; [20]): 95
